# Measurements reported in patent publication US20230066011A1, “PYRROLOPYRIMIDINE DERIVATIVE, AND PHARMACEUTICAL COMPOSITION FOR PREVENTING OR TREATING PROTEIN KINASE-RELATED DISEASE COMPRISING SAME AS ACTIVE INGREDIENT” (VORONOI CO., LTD., priority 2019, published 2023).
# What was measured:
# Assay type in all cases: biochemical
# [1] = target: T1, human GST-DYRK1A (Homo sapiens, UniProt Q13627); assay: GST-DYRK1A enzyme inhibition, ADP-Glo kinase assay; conditions: ATP 10 μM, GST-DYRK1A full length, read-out: DYRK1 IC50
# T1 construct: purified human GST-DYRK1A (full length, Thermo Scientifics) enzyme; purchased Thermo Scientifics
# In short: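 Full-length human GST-DYRK1A (10 ng) with 10 μM ATP and specific substrate in 40 mM Tris-HCl pH 7.4, 20 mM MgCl2, 0.5 mg/mL BSA, 50 μM DTT, 1 h at 25 °C. ADP formation read by ADP-Glo luminescence relative to solvent control; IC50 from three data sets.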
# [2] = target: LRRK2 (G2019S) (Homo sapiens, UniProt Q5S007, G2019S); assay: LRRK2 G2019S enzyme inhibition, ADP-Glo kinase assay; design: purchased SignalChem L10-12GG; conditions: ATP 25 μM
# Sequence of LRRK2 (G2019S) (Q5S007 970-2527 G2019S limits assumed): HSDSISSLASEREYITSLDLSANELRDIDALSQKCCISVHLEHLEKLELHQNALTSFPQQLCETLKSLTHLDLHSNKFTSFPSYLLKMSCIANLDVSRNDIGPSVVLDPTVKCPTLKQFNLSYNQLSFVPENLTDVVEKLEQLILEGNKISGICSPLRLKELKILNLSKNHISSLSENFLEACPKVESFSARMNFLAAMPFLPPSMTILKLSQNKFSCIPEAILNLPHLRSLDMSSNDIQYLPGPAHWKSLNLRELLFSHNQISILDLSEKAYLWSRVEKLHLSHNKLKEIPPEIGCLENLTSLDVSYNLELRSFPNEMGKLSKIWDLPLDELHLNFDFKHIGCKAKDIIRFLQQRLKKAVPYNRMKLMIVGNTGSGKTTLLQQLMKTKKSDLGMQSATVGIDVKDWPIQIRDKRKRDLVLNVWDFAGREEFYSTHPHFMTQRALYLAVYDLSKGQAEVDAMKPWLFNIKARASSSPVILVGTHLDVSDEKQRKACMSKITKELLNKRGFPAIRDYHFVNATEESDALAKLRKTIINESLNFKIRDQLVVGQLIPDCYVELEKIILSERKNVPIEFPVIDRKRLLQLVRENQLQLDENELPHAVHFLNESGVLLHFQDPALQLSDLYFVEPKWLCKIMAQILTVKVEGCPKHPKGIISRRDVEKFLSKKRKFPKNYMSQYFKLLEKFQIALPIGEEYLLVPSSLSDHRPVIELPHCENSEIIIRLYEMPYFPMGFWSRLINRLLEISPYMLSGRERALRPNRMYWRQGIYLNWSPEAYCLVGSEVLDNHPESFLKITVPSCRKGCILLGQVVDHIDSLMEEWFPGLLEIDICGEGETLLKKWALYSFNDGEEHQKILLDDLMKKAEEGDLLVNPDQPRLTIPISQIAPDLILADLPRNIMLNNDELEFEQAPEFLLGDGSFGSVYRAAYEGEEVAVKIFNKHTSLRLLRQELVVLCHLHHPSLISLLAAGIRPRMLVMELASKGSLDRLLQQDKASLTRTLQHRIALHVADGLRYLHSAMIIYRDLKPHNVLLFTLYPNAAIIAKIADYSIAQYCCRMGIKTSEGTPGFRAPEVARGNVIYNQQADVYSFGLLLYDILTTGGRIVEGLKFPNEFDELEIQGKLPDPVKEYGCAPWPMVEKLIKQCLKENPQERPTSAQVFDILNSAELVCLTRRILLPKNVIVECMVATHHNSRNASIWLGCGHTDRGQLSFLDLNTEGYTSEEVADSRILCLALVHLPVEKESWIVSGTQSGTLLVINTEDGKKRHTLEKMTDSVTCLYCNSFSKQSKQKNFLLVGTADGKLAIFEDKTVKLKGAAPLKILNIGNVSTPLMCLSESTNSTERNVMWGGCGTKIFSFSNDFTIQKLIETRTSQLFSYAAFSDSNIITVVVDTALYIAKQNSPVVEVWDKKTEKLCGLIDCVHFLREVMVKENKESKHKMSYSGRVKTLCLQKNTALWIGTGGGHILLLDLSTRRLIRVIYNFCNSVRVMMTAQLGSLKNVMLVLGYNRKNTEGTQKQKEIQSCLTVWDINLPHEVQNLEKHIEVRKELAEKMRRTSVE
# Protocol: To evaluate an inhibitory activity of the compound according to the present invention against LRRK2, LRRK2 (G2019S), DYRK1, CLK1, and TTK kinases, experiments were performed as follows.
# Each of the Example compounds was reacted with a purified human LRRK2 G2019S (L10-12GG, SignalChem) enzyme to evaluate an ability to inhibit an enzyme using a method as described below. A composition of 40 mM Tris-HCl (pH 7.4), 20 mM MgCl2, 0.5 mg/mL BSA, and 50 μM DTT was used as a reaction buffer, and all reactions of test substances were performed in the reaction buffer. Each of the compounds was diluted […] from a 10 mM DMSO stock using a serial dilution method, and enzyme activities were measured at final compound concentrations of 50, 10, 2, 0.4, 0.08, 0.016, 0.0032, 0.00064, 0.000128, 0.0000256, 0.00000512, and 0.000001024 μM. In the test, purified ATP (25 μM) and an enzyme substrate (0.2 μg) were reacted with a human LRRK2 G2019S (16 ng) enzyme at 25° C. for 2 hours, and the enzyme activities were then determined using an in vitro ADP-Glo™ kinase assay (Promega). An enzyme-activity reaction solution, an ADP-Glo reaction solution, and an enzyme-ability detection solution were reacted at a ratio of 2:2:1 to measure a degree of inhibition of the enzyme activity with luminescence. The degree of inhibition of the enzyme activity according to the treatment concentration of each of the compounds was calculated based on the fluorescence of the enzyme activity of the solvent control which was not treated with the compound. In this case, the concentration of each of the compounds inhibiting 50% of the enzyme activity was determined to be an IC50 (nM) value, and calculated using Prism (Version 5.01; GraphPad) software.
# [3] = target: T2, human GST-CLK1 (Homo sapiens, UniProt P49759); assay: GST-CLK1 enzyme inhibition, ADP-Glo kinase assay; conditions: ATP 10 μM, GST-CLK1 129-end
# T2 construct: purified human GST-CLK1 (129-end, SignalChem) enzyme; purchased SignalChem
# T2 sequence (P49759 129-484 limits assumed): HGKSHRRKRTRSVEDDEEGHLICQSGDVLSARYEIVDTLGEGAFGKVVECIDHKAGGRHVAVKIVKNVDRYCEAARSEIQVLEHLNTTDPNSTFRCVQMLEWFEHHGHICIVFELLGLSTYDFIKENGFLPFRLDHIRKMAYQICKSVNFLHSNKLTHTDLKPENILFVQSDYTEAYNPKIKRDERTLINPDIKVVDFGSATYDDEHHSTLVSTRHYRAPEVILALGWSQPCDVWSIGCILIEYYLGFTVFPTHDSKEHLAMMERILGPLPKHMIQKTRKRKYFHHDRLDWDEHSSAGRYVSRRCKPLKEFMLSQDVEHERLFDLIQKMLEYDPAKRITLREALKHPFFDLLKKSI
# In short: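 Human GST-CLK1 (129-end, 3 ng) reacted with substrate and 10 μM ATP for 1 h at 25° C in 40 mM Tris-HCl pH 7.4, 20 mM MgCl2, 0.5 mg/mL BSA, 50 μM DTT. ADP-Glo luminescence was normalised to solvent control; IC50 (nM) from 3 data sets.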
SMILES,IC50 [1] [nM],IC50 [2] [nM],IC50 [3] [nM]
"COCC(C)(C)Nc1nc(Nc2ccc(S(=O)(=O)N3CCC(N4CCOCC4)CC3)cc2OC)nc2[nH]ccc12 [Example 35, N^4-(1-methoxy-2-methylpropan-2-yl)-N^2-(2-methoxy-4-((morpholinopiperidin-1-yl)sulfonyl)phenyl)-7H-pyrrolo[2,3-d]pyrimidine-2,4-diamine]",301 to 1000,< 100,101 to 300
"N#Cc1c[nH]c2nc(Nc3ccc(C(=O)N4CC(CO)(CO)C4)c4c3OCCO4)nc(NC3CCOCC3)c12 [Example 337, 2-((8-(3,3-bis (hydroxymethyl)azetidine-1-carbonyl)-2,3-dihydrobenzo[b] [1,4]dioxin-5-yl)amino)-4-((tetrahydro-2H-pyran-4-yl)amino)-7H-pyrrolo[2,3-d]pyrimidine-5-carbonitrile]",301 to 1000,–,< 100
"CC[C@H](C)Nc1nc(Nc2ccc(S(C)(=O)=O)cc2OC)nc2[nH]cc(C(F)(F)F)c12 [Example 380, (S)-N^4-(sec-butyl)-N^2-(2-methoxy-4-(methylsulfonyl)phenyl)-5-(trifluoromethyl)-7H-pyrrolo[2,3-d]pyrimidine-2,4-diamine]",301 to 1000,–,301 to 1000
"COc1cc(P2(=O)CCN(C3CC3)CC2)ccc1Nc1nc(N[C@@H]2CCOC2)c2c(C#N)c[nH]c2n1 [Example 298, (R)-2-((4-(1-cyclopropyl-4-oxido-1,4-azaphosphinan-4-yl)-2-methoxyphenyl)a-mino)-4-((tetrahydrofuran-3-yl)amino)-7H-pyrrolo[2,3-d]pyrimidine-5-carbonitrile]",301 to 1000,–,301 to 1000
"COc1cc(S(C)(=O)=O)ccc1Nc1nc(NCC2CCCC2)c2c(C(F)(F)F)c[nH]c2n1 [Example 206, N^4-(cyclopentylmethyl)-N^2-(2-methoxy-4-(methylsulfonyl)phenyl)-5-(trifluoromethyl)-7H-pyrrolo[2,3-d]pyrimidine-2,4-diamine]",301 to 1000,–,301 to 1000
"CNc1nc(Nc2ccc(P3(=O)CCN(C4CC4)CC3)cc2OC)nc2[nH]cc(C#N)c12 [Example 279, 2-((4-(1-cyclopropyl-4-oxido-1,4-azaphosphinan-4-yl)-2-methoxyphenyl)amino)-4-(methylamino)-7H-pyrrolo[2,3-d]pyrimidine-5-carbonitrile]",301 to 1000,–,301 to 1000
"N#Cc1c[nH]c2nc(Nc3ccc(C(=O)N4CC(CO)(CO)C4)c4c3OCCO4)nc(NCC3CCCC3)c12 [Example 340, 2-((8-(3,3-bis (hydroxymethyl)azetidine-1-carbonyl)-2,3-dihydrobenzo [b][1,4]dioxin-5-yl)amino)-4-((cyclopentyl-methyl)amino)-7H-pyrrolo[2,3-d]pyrimidine-5-carbonitrile]",301 to 1000,–,< 100
"COc1cc(P(C)(C)=O)ccc1Nc1nc(NC2CC2)c2c(C#N)c[nH]c2n1 [Example 116, 4-(cyclopropylamino)-2-((4-(dimethylphosphoryl)-2-methoxyphenyl)amino)-7H-pyrrolo[2,3-d]pyrimidine-5-carbonitrile]",301 to 1000,–,< 100
"COc1cc(P2(=O)CCN(C3CC3)CC2)ccc1Nc1nc(NCC(C)C)c2c(C#N)c[nH]c2n1 [Example 290, 2-((4-(1-cyclopropyl-4-oxido-1,4-azaphosphinan-4-yl)-2-methoxyphenyl)a-mino)-4-(isobutylamino)-7H-pyrrolo[2,3-d]pyrimidine-5-carbonitrile]",301 to 1000,–,301 to 1000
"COc1cc(S(C)(=O)=O)ccc1Nc1nc(NCC(C)C)c2c(C(F)(F)F)c[nH]c2n1 [Example 180, N^4-isobutyl-N^2-(2-methoxy-4-(methylsulfonyl)phenyl)-5-(trifluoromethyl)-7H-pyrrolo[2,3-d]pyrimidine-2,4-diamine]",301 to 1000,–,301 to 1000
"CC[C@H](C)Nc1nc(Nc2ccc(S(C)(=O)=O)cc2OC)nc2[nH]ccc12 [Example 18, (S)-N^4-(sec-butyl)-N^2-(2-methoxy-4-(4-methylsulfonyl)phenyl)-7H-pyrrolo[2,3-d]pyrimidine-2,4-diamine]",301 to 1000,–,301 to 1000
"COc1cc(P2(=O)CCN(C3COC3)CC2)ccc1Nc1nc(NC2CC2)c2c(C#N)c[nH]c2n1 [Example 286, 4-(cyclo-propylamino)-2-((2-methoxy-4-(1-(oxetna-3-yl)-4-oxido-1,4-azaphosphinan-4-yl)phenyl)amino)-7H-pyrrolo[2,3-d]pyrimidine-5-carbonitrile]",301 to 1000,–,< 100

# Continued, values first:
IC50 [1] [nM],IC50 [2] [nM],IC50 [3] [nM],SMILES
< 100,< 100,< 100,"COc1cc(P2(=O)CCN(C3COC3)CC2)ccc1Nc1nc(NC2CCC2)c2c(C#N)c[nH]c2n1 [Example 288, 4-(cyclo-butylamino)-2-((2-methoxy-4-(1-(oxetan-3-yl)-4-oxido-1,4-azaphosphinan-4-yl)phenyl)amino)-7H-pyrrolo[2,3-d]pyrimidine-5-carbonitrile]"
301 to 1000,< 100,< 100,"COc1cc(P2(=O)CCN(C3CC3)CC2)ccc1Nc1nc(NC2CCOCC2)c2c(C(F)(F)F)c[nH]c2n1 [Example 419, 1-cyclopropyl-4-(3-methoxy-4-((4-((tetrahydro-2H-pyran-4-yl)amino)-5-(trifluoro)-7H-pyrrolo[2,3-d]pyrimidin-2-yl)amino)phenyl)-1,4-azaphosphinane 4-oxide]"
301 to 1000,< 100,301 to 1000,"CNc1nc(Nc2ccc(S(=O)(=O)N3CCOCC3)cc2OC)nc2[nH]ccc12 [Example 2, N^2-(2-methoxy-4-(morpholinosulfonyl)phenyl)-N^4-methyl-7H-pyrrolo[2,3-d]pyrimidine-2,4-diamine 2,2,2-trifluoroacetate]"
301 to 1000,< 100,301 to 1000,"O=C(c1ccc(Nc2nc(NCC3CC3)c3cc[nH]c3n2)c2c1OCCO2)N1CCOCC1 [Example 53, (8-((4-((cyclopropylmethyl)amino)-7H-pyrrolo[2,3-d]pyrimidin-2-yl)amino)-2,3-dihydrobenzo[b][1,4]dioxin-5-yl)(morpholino)methanone]"
301 to 1000,< 100,301 to 1000,"CCNc1nc(Nc2ccc(S(=O)(=O)N3CCOCC3)cc2OC)nc2[nH]ccc12 [Example 5, N^4-ethyl-N^2-(2-methoxy-4-(morpholinosulfonyl)phenyl)-7H-pyrrolo[2,3-d]pyrimidine-2,4-diamine 2,2,2-trifluoroacetate]"
301 to 1000,101 to 300,301 to 1000,"COc1cc(S(C)(=O)=O)ccc1Nc1nc(NCC2CCCC2)c2cc[nH]c2n1 [Example 42, N^4-(cyclopentylmethyl)-N^2-(2-methoxy-4-(methylsulfonyl)phenyl)-7H-pyrrolo[2,3-d]pyrimidine-2,4-diamine 2,2,2-trifluoroaceate]"
301 to 1000,< 100,301 to 1000,"CCNc1nc(Nc2ccc(S(=O)(=O)N3CCC(N4CCOCC4)CC3)cc2OC)nc2[nH]ccc12 [Example 6, N^4-ethyl-N^2-(2-methoxy-4-((4-morpholinopiperidin-1-yl)sulfonyl)phenyl)-7H-pyrrolo[2,3-d]pyrimidine-2,4-diamine 2,2,2-trifluoroacetate]"
101 to 300,–,101 to 300,"CCNc1nc(Nc2ccc(C(=O)N3CCN(C4COC4)CC3)c3c2OCCO3)nc2[nH]cc(C#N)c12 [Example 265, 4-(ethylamino)-2-((8-(4-(oxetan-3-yl)piperazine-1-carbonyl)-2,3-dihydrobenzo[b][1,4]dioxin-5-yl)amino)-7H-pyrrolo[2,3-d]pyrimidine-5-carbonitrile]"
< 100,–,< 100,"CC(C)Nc1nc(Nc2ccc(C(=O)N3CCC(N4CCOCC4)CC3)c3c2OCCO3)nc2[nH]cc(C(F)(F)F)c12 [Example 365, (8-((4-(isopropylamino)-5-(trifluoromethyl)-7H-pyrrolo[2,3-d]pyrimidin-2-yl)amino)-2,3-dihydrobenzo[b] [1,4]dioxin-5-yl) (4-morpholino-piperidin-1-yl)methanone]"
